Test [1] has as its system Mus musculus. In words: Growth inhibition of Swiss Albino mouse bearing EAT cells assessed as increase in median survival time at 100 mg/kg, ip. The format is functional. Conditions: route intraperitoneal.
The subject of test [2] is Mus musculus. In words: Growth inhibition of Swiss Albino mouse bearing EAT cells assessed as increase in life span at 100 mg/kg, ip administered on day 11 after tumor inoculation. The format is functional. Further details: scale not given: the % may be the effect or the level left. Conditions: route intraperitoneal.
The test system of test [3] is Mus musculus. In words: Growth inhibition of Swiss Albino mouse bearing EAT cells assessed as decrease in ascites volume at 100 mg/kg, ip relative to control. The test is classed as functional, organism-based. Also on record: dose 100 mg/kg.
The test system of test [4] is Mus musculus. In words: Antiangiogenic effect in Swiss Albino mouse bearing EAT cells assessed as inhibition of blood vessel formation in at 100 mg/kg, ip. The test is classed as functional. Conditions: route intraperitoneal.
Test [5] deals with Mus musculus. In words: Growth inhibition of Swiss Albino mouse bearing EAT cells assessed as increase in life span at 100 mg/kg, ip. Also on record: scale not given: the % may be the effect or the level left. The test is classed as functional. The following applies: route intraperitoneal.
For test [6], the system named is Mus musculus. In words: Growth inhibition of Swiss Albino mouse bearing EAT cells assessed as reduction in cell numbers at 100 mg/kg, ip relative to control. The test is classed as functional, organism-based. Also on record: dose 100 mg/kg.
For test [7], the species on record is Mus musculus. In words: Antiangiogenic effect in Swiss Albino mouse bearing EAT cells assessed as decrease in microvessel density by CAM assay. The test is classed as functional, organism-based.
Test [8] has as its system Mus musculus. In words: Growth inhibition of Swiss Albino mouse bearing EAT cells assessed as increase in life span at 100 mg/kg, ip administered on day 9 after tumor inoculation. The format is functional. Further details: scale not given: the % may be the effect or the level left. Conditions: route intraperitoneal.
The subject of test [9] is Mus musculus. In words: Growth inhibition of Swiss Albino mouse bearing EAT cells assessed as increase in life span at 100 mg/kg, ip administered on day 7 after tumor inoculation. Also on record: scale not given: the % may be the effect or the level left. The following applies: route intraperitoneal. The format is functional.

Calls of active or inactive are those of the source. No cut-off for these calls is given here.

Take `Cc1cc(/C=C/C(=O)/C=C/c2ccc(OC3CC3)c(C)c2)ccc1OC1CC1`: the Survival with Mus musculus [1] worked out at 23.2 days. In addition, the Activity with Mus musculus [2] was determined as 28.8%; in the test on Mus musculus [4], 4.4; in the test with Mus musculus [5], 28.8%. Besides, the result in the test with Mus musculus [3], in the test on Mus musculus [6] and in the test listed under Mus musculus [7] was Active.

In the case of `O=C(/C=C/c1ccc(OC2CC2)cc1)/C=C/c1ccc(OC2CC2)cc1`, in the test with Mus musculus [1], the Survival worked out at 24.2 days. Moreover, the outcome in the test on Mus musculus [3], with Mus musculus [6] and in the test filed under Mus musculus [7] was Active. The Activity was 4.2 with Mus musculus [4], 34.4% with Mus musculus [5] and 34.4% in the test with Mus musculus [8].

Take `COc1cc(/C=C/C(=O)/C=C/c2cc(OC)c(OC3CC3)c(OC)c2)cc(OC)c1OC1CC1`: in the test with Mus musculus [1], the Survival came to 32 days. Besides, the result with Mus musculus [3], in the test on Mus musculus [6] and in the test listed under Mus musculus [7] was Active. Moreover, the results for the Activity in the test with Mus musculus [4] and in the test with Mus musculus [5] were 2.8 and 77.7%, respectively.

Take `COc1cc(/C=C/C(=O)/C=C/c2ccc(OC3CC3)c(OC)c2)ccc1OC1CC1`: the Survival in the test on Mus musculus [1] worked out at 26.8 days. The result in the test with Mus musculus [3], in the test on Mus musculus [6] and in the test filed under Mus musculus [7] was Active. In addition, the Activity in the test with Mus musculus [4] came out at 3; in the test on Mus musculus [5], 48.8%; with Mus musculus [9], 48.8%.

(Values after ChEMBL document CHEMBL1137521, “In vivo growth inhibitory and anti-angiogenic effects of synthetic novel dienone cyclopropoxy curcumin analogs on mouse Ehrlich ascites tumor” (2007).)
